Measured values from patent US20220356186A1, “PERK INHIBITING PYRROLOPYRIMIDINE COMPOUNDS” (HiberCell, Inc., priority 2019, published 2022).
Like-named read-outs stand apart in the source and are kept apart here.

What was measured:
[1] = molecular target: T1, EIF2AK3 (PERK) catalytic domain (amino acids 536-1116) (Homo sapiens, UniProt Q9NZJ5); assay: PERK in vitro activity assay (isolated), TR-FRET kinase assay; type: biochemical; conditions: isolated PERK enzyme, 1.5 μM ATP; read-out: Biochemical IC50
T1 construct: EIF2AK3 (PERK) catalytic domain (amino acids 536-1116)
T1 sequence (Q9NZJ5 536-1116): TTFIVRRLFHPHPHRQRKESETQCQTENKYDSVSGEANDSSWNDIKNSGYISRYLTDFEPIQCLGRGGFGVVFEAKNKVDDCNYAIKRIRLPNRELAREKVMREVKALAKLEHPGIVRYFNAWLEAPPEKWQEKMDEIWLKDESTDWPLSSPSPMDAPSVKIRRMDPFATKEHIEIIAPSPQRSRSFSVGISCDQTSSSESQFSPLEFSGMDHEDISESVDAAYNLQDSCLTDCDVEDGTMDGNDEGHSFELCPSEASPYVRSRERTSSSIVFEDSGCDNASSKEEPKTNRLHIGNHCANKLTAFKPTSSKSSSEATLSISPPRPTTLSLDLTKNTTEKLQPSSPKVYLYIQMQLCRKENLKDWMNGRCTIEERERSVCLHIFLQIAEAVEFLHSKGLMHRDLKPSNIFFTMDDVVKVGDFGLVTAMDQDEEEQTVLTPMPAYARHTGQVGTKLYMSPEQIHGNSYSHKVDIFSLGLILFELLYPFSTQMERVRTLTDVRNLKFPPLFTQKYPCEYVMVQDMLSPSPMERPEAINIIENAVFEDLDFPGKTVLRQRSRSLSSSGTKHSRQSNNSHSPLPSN
From the text: PERK In Vitro Activity Assay (Isolated):
In vitro Inhibition of PERK Enzyme Activity (isolated) Recombinant human EIF2AK2 (PKR) catalytic domain (amino acids 252-551), EIF2AK3 (PERK) catalytic domain (amino acids 536-1116), GFP-eIF2a substrate, and Terbium-labelled phospho-eIF2a antibody is obtained (Invitrogen, Carlsbad, Calif.).
Express and purify HIS-SUMO-GCN2 catalytic domain (amino acids 584-1019) from E. coli. Perform TR-FRET kinase assays in the absence or presence of inhibitors in a reaction buffer consisting of 50 mM HEPES, pH 7.5, 10 mM MgCb, 1.0 mM EGTA, and 0.01% Brij-35, and 100-200 nM GFP-eIF2a substrate. […] Add test compound, initiate the reaction by addition of enzyme, and incubate at room temperature for 45 minutes. Stop the reaction by addition of EDTA to a final concentration of 10 mM, add Terbium-labelled phospho-eIF2a antibody at a final concentration of 2 nM, and incubate for 90 minutes. Monitor the resulting fluorescence in an EnVison® Multilabel reader (PerkinElmer, Waltham, Mass.). Determine TR-FRET ratios and the resulting IC50 values using a 4-parameter nonlinear logistic equation as shown: Y=(A+((B−A)/(1+((C/x)[…])))) where, Y=% specific inhibition, A=Bottom of the curve, B=Top of the curve, C=absolute IC50 (concentration causing 50% inhibition), and D=hill slope.

[2] = tested on: GFP-eIF2α in HEK293 cells; assay: PERK cellular assay, TR-FRET in HEK293-EGFP-eIF2a cells after tunicamycin-induced ER stress; type: cell-based; conditions: HEK293-EGFP-eIF2a cells, tunicamycin 2 hours, read-out: Cellular eIF2α IC50
Protocol: Stable cell lines were created in HEK293 cells using lentiviral particles harboring an expression vector for GFP-eIF2α. Cells were selected using puromycin and enriched using fluorescence activated cell sorting against GFP. HEK293-EGFP-eIF2a cells were plated at 5000 cells/well in 384-well assay plates and incubated overnight at 37° C., 5% CO2. Inhibitor compounds were added to the wells by Echo acoustic dispensing and incubated for 30 minutes at 37° C., 5% CO2 prior to induction of ER stress by addition of tunicamycin to […] for 2 hours. Cells were lysed and TR-FRET was measured in an EnVision plate reader (PerkinElmer). FRET ratio data was normalized to signal from lysates treated with DMSO vehicle control and plotted as percent inhibition against 10-point; 3-fold dilution series of inhibitors. IC50 values were calculated using 4-parameter logistical fitting in XLFit.

Row | IC50 [1] [µM] | Compound | IC50 [2] [µM] | IC50 ([2]; Homo sapiens, HEK293, 2 h) [µM]
1 | 0.251 to 0.5 | Cc1nc(N)c2c(-c3ccc(NC(=O)C(O)c4cc(F)cc(C(F)(F)F)c4)c(F)c3F)cn(C)c2n1 (single isomer, unassigned) [Example 116, N-(4-(4-amino-2,7-dimethyl-7H-pyrrolo[2,3-d]pyrimidin-5-yl)-2,3-difluorophenyl)-2-(3-fluoro-5-(trifluoromethyl)phenyl)-2-hydroxyacetamide] | 0.251 to 0.5 | –
2 | 0.001 to 0.025 | Cc1nc(N)c2c(-c3cc(F)c(NC(=O)C(O)c4cccc(F)c4)cc3C)cn(C)c2n1 (single isomer, unassigned) [Example 121, N-(4-(4-amino-2,7-dimethyl-7H-pyrrolo[2,3-d]pyrimidin-5-yl)-2-fluoro-5-methylphenyl)-2-(3-fluorophenyl)-2-hydroxyacetamide] | 0.026 to 0.05 | –
3 | 0.101 to 0.25 | Cc1nc(N)c2c(-c3cc(F)c(NC(=O)C(O)c4cccc(F)c4)cc3C)cn(C)c2n1 (single isomer, unassigned) [Example 122, N-(4-(4-amino-2,7-dimethyl-7H-pyrrolo[2,3-d]pyrimidin-5-yl)-2-fluoro-5-methylphenyl)-2-(3-fluorophenyl)-2-hydroxyacetamide] | 1 to 2 | –
4 | 0.001 to 0.025 | Cc1cc(NC(=O)C(O)c2ccccc2)ccc1-c1cn(C)c2ncnc(N)c12 (centres unmarked) [Example 5, N-(4-(4-amino-7-methyl-7H-pyrrolo[2,3-d]pyrimidin-5-yl)-3-methylphenyl)-2-hydroxy-2-phenylacetamide] | 0.026 to 0.05 | –
5 | 0.051 to 0.1 | Cc1cc(NC(=O)C(C)(O)c2ccccc2)ccc1-c1cn(C)c2ncnc(N)c12 (centres unmarked) [Example 7, N-(4-(4-amino-7-methyl-7H-pyrrolo[2,3-d]pyrimidin-5-yl)-3-methylphenyl)-2-hydroxy-2-phenylpropanamide] | – | 0.101 to 0.25
6 | 0.001 to 0.025 | COC(C(=O)Nc1ccc(-c2cn(C)c3ncnc(N)c23)c(C)c1)c1ccccc1 (centres unmarked) [Example 8, N-(4-(4-amino-7-methyl-7H-pyrrolo[2,3-d]pyrimidin-5-yl)-3-methylphenyl)-2-methoxy-2-phenylacetamide] | – | 0.101 to 0.25
7 | 0.001 to 0.025 | Cc1cc(NC(=O)C(O)c2cccc(F)c2)ccc1-c1cn(C)c2ncnc(N)c12 (centres unmarked) [Example 10, N-(4-(4-amino-7-methyl-7H-pyrrolo[2,3-d]pyrimidin-5-yl)-3-methylphenyl)-2-(3-fluorophenyl)-2-hydroxyacetamide] | 0.051 to 0.1 | –
8 | 0.001 to 0.025 | Cc1cc(NC(=O)C(O)c2cccc(F)c2)ccc1-c1cn(C)c2ncnc(N)c12 (centres unmarked) [Example 11, N-(4-(4-amino-7-methyl-7H-pyrrolo[2,3-d]pyrimidin-5-yl)-3-methylphenyl)-2-(3-fluorophenyl)-2-hydroxyacetamide] | 0.001 to 0.025 | –
9 | 0.001 to 0.025 | Cc1nc(N)c2c(-c3ccc(NC(=O)C(O)c4cccc(F)c4)c(F)c3C)cn(C)c2n1 (centres unmarked) [Example 12, N-(4-(4-amino-2,7-dimethyl-7H-pyrrolo[2,3-d]pyrimidin-5-yl)-2-fluoro-3-methylphenyl)-2-(3-fluorophenyl)-2-hydroxyacetamide] | 0.001 to 0.025 | –
10 | 0.051 to 0.1 | Cc1nc(N)c2c(-c3ccc(NC(=O)C(O)c4cccc(F)c4)c(F)c3C)cn(C)c2n1 (centres unmarked) [Example 13, N-(4-(4-amino-2,7-dimethyl-7H-pyrrolo[2,3-d]pyrimidin-5-yl)-2-fluoro-3-methylphenyl)-2-(3-fluorophenyl)-2-hydroxyacetamide] | 1 to 2 | –
11 | 0.001 to 0.025 | Cn1cc(-c2ccc(NC(=O)C(O)c3cccc(F)c3)cc2Cl)c2c(N)ncnc21 (centres unmarked) [Example 14, N-(4-(4-amino-7-methyl-7H-pyrrolo[2,3-d]pyrimidin-5-yl)-3-chlorophenyl)-2-(3-fluorophenyl)-2-hydroxyacetamide] | 0.001 to 0.025 | –
12 | 0.026 to 0.05 | Cn1cc(-c2ccc(NC(=O)C(O)c3cccc(F)c3)cc2Cl)c2c(N)ncnc21 (centres unmarked) [Example 15, N-(4-(4-amino-7-methyl-7H-pyrrolo[2,3-d]pyrimidin-5-yl)-3-chlorophenyl)-2-(3-fluorophenyl)-2-hydroxyacetamide] | 0.051 to 0.1 | –
13 | 0.001 to 0.025 | Cn1cc(-c2ccc(NC(=O)C(O)c3cccc(F)c3)cc2C(F)(F)F)c2c(N)ncnc21 (centres unmarked) [Example 16, N-(4-(4-amino-7-methyl-7H-pyrrolo[2,3-d]pyrimidin-5-yl)-3-(trifluoromethyl)phenyl)-2-(3-fluorophenyl)-2-hydroxyacetamide] | – | 0.101 to 0.25
14 | 0.001 to 0.025 | CCc1cc(NC(=O)C(O)c2cccc(F)c2)ccc1-c1cn(C)c2ncnc(N)c12 (centres unmarked) [Example 17, N-(4-(4-amino-7-methyl-7H-pyrrolo[2,3-d]pyrimidin-5-yl)-3-ethylphenyl)-2-(3-fluorophenyl)-2-hydroxyacetamide] | – | 0.001 to 0.025
15 | 0.001 to 0.025 | Cn1cc(-c2ccc(NC(=O)C(O)c3cccc(F)c3)cc2OC(F)(F)F)c2c(N)ncnc21 (centres unmarked) [Example 18, N-(4-(4-amino-7-methyl-7H-pyrrolo[2,3-d]pyrimidin-5-yl)-3-(trifluoromethoxy)phenyl)-2-(3-fluorophenyl)-2-hydroxyacetamide] | – | 0.101 to 0.25
16 | 0.001 to 0.025 | Cc1nc(N)c2c(-c3ccc(NC(=O)C(O)c4cccc(F)c4)cc3C(F)(F)F)cn(C)c2n1 (centres unmarked) [Example 19, N-(4-(4-amino-2,7-dimethyl-7H-pyrrolo[2,3-d]pyrimidin-5-yl)-3-(trifluoromethyl)phenyl)-2-(3-fluorophenyl)-2-hydroxyacetamide] | 0.101 to 0.25 | –
17 | 0.051 to 0.1 | Cc1nc(N)c2c(-c3ccc(NC(=O)C(O)c4cccc(F)c4)cc3C(F)(F)F)cn(C)c2n1 (centres unmarked) [Example 20, N-(4-(4-amino-2,7-dimethyl-7H-pyrrolo[2,3-d]pyrimidin-5-yl)-3-(trifluoromethyl)phenyl)-2-(3-fluorophenyl)-2-hydroxyacetamide] | 1 to 2 | –
18 | 0.001 to 0.025 | Cc1nc(N)c2c(-c3ccc(NC(=O)C(O)c4cccc(F)c4)cc3)cn(C)c2n1 (centres unmarked) [Example 23, N-(4-(4-amino-2,7-dimethyl-7H-pyrrolo[2,3-d]pyrimidin-5-yl)phenyl)-2-(3-fluorophenyl)-2-hydroxyacetamide] | – | 0.501 to 1
19 | 0.026 to 0.05 | Cc1nc(N)c2c(-c3ccc(NC(=O)C(O)c4cccc(F)c4)cc3)cn(C)c2n1 (centres unmarked) [Example 24, N-(4-(4-amino-2,7-dimethyl-7H-pyrrolo[2,3-d]pyrimidin-5-yl)phenyl)-2-(3-fluorophenyl)-2-hydroxyacetamide] | 1 to 2 | –
20 | 0.101 to 0.25 | Cc1cc(NC(=O)C(O)c2cccc(F)c2)ccc1-c1cn(C)c2nc(C(C)C)nc(N)c12 (centres unmarked) [Example 25, N-(4-(4-amino-2-isopropyl-7-methyl-7H-pyrrolo[2,3-d]pyrimidin-5-yl)-3-methylphenyl)-2-(3-fluorophenyl)-2-hydroxyacetamide] | – | > 5
21 | 0.026 to 0.05 | Cc1cc(NC(=O)[C@H](N)c2ccccc2)ccc1-c1cn(C)c2ncnc(N)c12 [Example 26, (R)-2-amino-N-(4-(4-amino-7-methyl-7H-pyrrolo[2,3-d]pyrimidin-5-yl)-3-methylphenyl)-2-phenylacetamide] | – | 0.501 to 1
22 | 0.101 to 0.25 | Cc1cc(NC(=O)C(N)c2ccccc2)ccc1-c1cn(C)c2ncnc(N)c12 (centres unmarked) [Example 27, 2-amino-N-(4-(4-amino-7-methyl-7H-pyrrolo[2,3-d]pyrimidin-5-yl)-3-methylphenyl)-2-phenylacetamide] | – | 0.251 to 0.5
